Measurements as given in patent US20090318514A1, “Novel Pharmaceutical Compositions” (priority 2006, published 2009).

Tests used:
hTRβ = molecular target: T1, hTRβ (Homo sapiens, UniProt P10828); assay: TR competition binding assay with filter separation; details: competition with 125I-T3 tracer, full length hTRβ; read-out: TR-β IC50
T1 sequence (P10828 1-461): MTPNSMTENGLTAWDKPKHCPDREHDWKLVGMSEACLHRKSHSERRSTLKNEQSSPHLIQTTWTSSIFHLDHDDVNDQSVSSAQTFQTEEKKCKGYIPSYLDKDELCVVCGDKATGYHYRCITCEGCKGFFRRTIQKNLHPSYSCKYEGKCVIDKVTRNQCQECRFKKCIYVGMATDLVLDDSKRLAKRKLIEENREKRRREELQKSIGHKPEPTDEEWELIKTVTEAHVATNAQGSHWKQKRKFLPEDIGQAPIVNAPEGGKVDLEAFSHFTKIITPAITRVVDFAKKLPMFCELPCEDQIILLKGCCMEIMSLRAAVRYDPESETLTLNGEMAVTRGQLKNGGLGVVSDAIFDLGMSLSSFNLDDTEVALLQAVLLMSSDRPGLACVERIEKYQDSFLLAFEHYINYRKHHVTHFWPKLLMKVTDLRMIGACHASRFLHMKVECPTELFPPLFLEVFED
Method: TR Competition Binding Assay with Filter Separation
Compounds are tested for their ability to compete with the tracer ^125I-T3 for binding to full length hTRα and hTRβ. Receptor extracts and tracer are diluted in assay buffer (17 mM K2HPO4, 3 mM KH2PO4, 400 mM KCl, 1 mM MgCl2, 0.5 mM EDTA and 8.7% glycerol). ^125I-T3 is diluted to a final concentration of 0.2 nM and receptor is diluted to reach a final count in Trilux Microbeta of approximately 10000 ccpm. Compounds are typically serially diluted in DMSO from DMSO stock solutions of 10 mM. To 96 well microtiter plates are 100 μl tracer, 4 μl test compound dilution series and 100 μl receptor dilution added. The assay plates are incubated at +4° C. overnight (app. 16 h incubation). Receptor bound and free tracer are separated over a glass fiber filter (FILTERMAT B, PerkinElmer) on a Tomtec Cellharvester with 18 mM K2HPO4, 2 mM KH2PO4, 0.5 mM EDTA wash buffer. The filters are dried at 60° C. for 1 h and then merged with a scintillant wax (MELTILEX, PerkinElmer) on a Wallac Microsealer before measuring in a Trilux Microbeta. IC50s, the concentration test compound needed to decrease tracer binding by 50 percent, are generated via analysis of data in XLfit version 2.0 or later with a four parameter logistic model.

CHO/hThRβ1 = molecular target: T2, CHO/hThRβ1 (Homo sapiens, UniProt P10828); assay: Reporter cell line (TRAF) assay, agonist activity; type: cell-based; details: CHO/hThRβ1 reporter cells, alkaline phosphatase readout after 48 hours
T2 construct: The cDNAs encoding the full length human ThRα1 and ThRβ1 were cloned; expressed in transfected cells
T2 sequence (P10828 1-461): T1 sequence (P10828 1-461)
From the text: Vector Constructs, Generation of Reporter Cell Lines (TRAF), and Assay Procedure.
The cDNAs encoding the full length human ThRα1 and ThRβ1 were cloned in the mammalian expression vector pMT-hGH. The pDR4-ALP reporter vector contains one copy of the direct repeat sequence AGGTCA nnnnAGGTCA, fused upstream of the core promoter sequences of the mouse mammary tumor virus long terminal repeat (MMTV), replacing the glucocorticoid response elements. The DR4-MMTV promoter fragment was then cloned in the 5′ end of the cDNA encoding human placental alkaline phosphatase (ALP), followed in the 3′-end by the polyA-signal sequence of the human growth hormone gene. Chinese hamster ovary (CHO) K1 cells (ATCC No. CCL 61) were transfected in two steps, first with the receptor expression vectors pMT-hThRα1 and pMT-THRβ1, respectively, and the drug resistance vector pSV2-Neo, and in the second step, with the reporter vector pDR4-ALP and the drug resistance vector pKSV-Hyg. Individual drug resistant clones were isolated and selected based on T3 inducibility. One stable reporter cell clone each of CHO/hThRα1 and CHO/hThRβ1 were chosen for further study in response to various thyroid hormone agonists.
CHO/hThRα1 and CHO/hThRβ1 were seeded in growth medium (Coon's/F12, 10% L-3,5,3′-triiodothyronine and L-thyroxine depleted FCS, 2 mM L-glutamine) in 96-well plates at 20×10^3 cells per well. After 24 hour incubation at 37° C. in humidified chambers, at 5% CO2, conditioned medium was replaced by induction medium (OptiMEM, 2 mM L-glutamine, 50 μm/mL gentamycin) and cells were exposed to the test compounds at serial dilutions, at final DMSO concentration of 0.5% , or to serial dilution of T3 (positive control), to assess agonist activity of test compounds.
After 48 hours incubation at 37° C. in humidified chambers at 5% CO2 the level of alkaline phosphatase expressed and secreted into the cell culture medium was analyzed by chemiluminescence on MicroBeta Trilux.
The assay procedure described above was carried out for the compounds of Examples 1 to 40, 43-44 and 47-48.

| Structure (SMILES) | IC50 (hTRβ) [nM] | β % agonism (CHO/hThRβ1) [%] |
| --- | --- | --- |
| Cc1nc(-c2nc3cc(Oc4c(Br)cc(CC(F)C(=O)O)cc4Br)ccc3[nH]2)c(C)o1 (stereo not drawn) [Example 32, 3-{3,5-Dibromo-4-[2-(2,5-dimethyl-oxazol4-yl)-1H-benzoimidazol-5-yloxy]-phenyl}-2-fluoropropionic acid] | 0.49 | 75 |
| CCCc1nc2cc(Oc3c(Br)cc(OCC(=O)O)cc3Br)ccc2[nH]1 [Example 17] | 7.5 | 70 |
| O=C(O)CCCc1cc(Br)c(Oc2ccc3[nH]c(-c4ccc(F)cc4)nc3c2)c(Br)c1 [Example 5, 4-(3,5-dibromo-4-{[2-(4-fluorophenyl)-1H-benzimidazol-5-yl]oxy}phenyl)butanoic acid] | 5.5 | 91 |

Other lines, results leading:

| IC50 (hTRβ) [nM] | β % agonism (CHO/hThRβ1) [%] | Structure (SMILES) |
| --- | --- | --- |
| 1.7 | 70 | CC(C)(C)Cc1nc2cc(Oc3c(Br)cc(OCC(=O)O)cc3Br)ccc2[nH]1 [Example 15, {3,5-dibromo-4-{[2-(2,2-dimethylpropyl)-1H-benzimidazol-5-yl)oxy]phenoxy}acetic acid] |
| 0.14 | 100 | CC(C)Cc1nc2cc(Oc3c(Br)cc(CC(F)C(=O)O)cc3Br)ccc2[nH]1 (racemic) [Example 10, 3-(3,5-dibromo-4-{[2-isobutyl-1H-benzimidazol-5-yl]oxy}phenyl)-2-fluoropropanoic acid] |
| 2.4 | 99 | Cc1cccc(-c2nc3cc(Oc4c(Br)cc(CCC(=O)O)cc4Br)ccc3[nH]2)c1 [Example 11, 3-(3,5-dibromo-4-{[2-(3-methylphenyl)-1H-benzimidazol-5-yl]oxy}phenyl)propanoic acid] |
